Data on 1 molecule can be found in paper PMC12369479 (Journal of Experimental Botany, 2025).

One experiment has as its target WT ZmADK3 (Zea mays, UniProt A0A1D6E5Z5). The experiment is described as follows: Binding affinity by MST.
The target in experiment [1] is T1, PpADK1 (Physcomitrium patens, UniProt O49923).
T1 construct: made in house; host or cells: E. coli T7 Express Iq
The experiment is described as follows: Binding affinity by microscale thermophoresis (MST). Set-up: species or system Physcomitrella patens. As to conditions: 50 mM HEPES pH 7.5, 1 mM MgCl2, first or only binding event, read-out: KD. The protocol:
(§1) The microscale thermophoresis (MST) method was used to determine the binding affinity of various ribosides for ZmADK2 and PpADK1. Proteins were fluorescently labeled with RED-tris-NTA dye (www.nanotemper-technologies.com) using a 1:1 dye/protein molar ratio. The labeled protein was adjusted to 100–300 nM in 50 mM HEPES buffer pH 7.5, 1 mM MgCl2, and 0.2% Tween. Measurements were performed in premium capillaries on a Monolith NT.115 instrument at 30 °C with 5 s/30 s/5 s laser off/on/off times, respectively, with continuous sample fluorescence recording. Thermal stability was measured by nano-differential scanning fluorimetry on a Prometheus NT.48 instrument (www.nanotemper-technologies.com) in various buffers covering a pH (7.0–9.5) and temperature range (25–95 °C), with a heating rate of 1 °C min^–1, and using NT melting control software. Protein unfolding was measured by detecting the temperature-induced change in tryptophan fluorescence intensity at emission wavelengths of 330±5 nm and 350±5 nm. The melting temperature (Tm) was deduced from the maximum of the first derivative of the fluorescence ratios F350/F330.
A general note: In MST a laser heats a spot of the sample, and binding alters the fluorescence response.

In experiment [2] the target is T2, ZmADK2 (Zea mays, UniProt B4FFH8, T4S). The experiment is described as above. As to conditions: MST. The protocol: as §1
T2 sequence (B4FFH8 1-342 T4S): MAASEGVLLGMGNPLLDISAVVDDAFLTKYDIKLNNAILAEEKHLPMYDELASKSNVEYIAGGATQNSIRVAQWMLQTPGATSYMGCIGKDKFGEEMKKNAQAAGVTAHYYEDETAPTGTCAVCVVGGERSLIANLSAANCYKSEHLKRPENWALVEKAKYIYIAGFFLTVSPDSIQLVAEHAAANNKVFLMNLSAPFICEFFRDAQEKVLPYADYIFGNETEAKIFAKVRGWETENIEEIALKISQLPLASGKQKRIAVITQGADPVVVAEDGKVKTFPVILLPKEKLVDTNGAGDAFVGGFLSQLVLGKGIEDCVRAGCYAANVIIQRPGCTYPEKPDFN
Experiment [3] addresses T2, ZmADK2. Description: ADK activity, coupled reaction with PK and LDH. The experiment is classed as biochemical. As to conditions: ZmADK2; 100 µM substrate; 10 mM ATP; pH 7.5; 30 °C. Here is the method:
(§2) Substrate analogs were purchased from Sigma-Aldrich (www.sigmaaldrich.com). The ADK activity was measured spectrophotometrically on an Agilent 8453 UV-Vis spectrophotometer (www.agilent.com) at 30 °C using a coupled reaction with pyruvate kinase (PK) and lactate dehydrogenase (LDH) (www.sigmaaldrich.com) ([Blondin et al., 1994]). In this assay, PK converts ADP produced by ADK and phosphoenolpyruvate (PEP) to pyruvate. Subsequently, LDH then converts pyruvate to lactate using the coenzyme NADH, with the conversion monitored at 340 nm. The reaction was conducted in 50 mM Tris–HCl buffer at pH 7.5, containing 50 mM KCl, 6 mM MgCl2, 300 µM PEP, 200 µM NADH, 10 mM ATP, 2 U of PK, and 2.5 U of LDH, using various nucleoside substrates. Kinetic constants were determined using GraphPad Prism 8.0 software (www.graphpad.com). Each measurement was performed six times using repetitive purified enzymes. The activities of all five ADKs were also measured by HPLC ([Moffatt et al., 1991]). The reaction mixture comprised 50 mM Tris–HCl pH 7.5, 5 mM MgCl2, 0.5 mM DTT, 30 mM NaF, 5 mM ATP, 40 µM substrate, and 2–150 ng of purified ADK, depending on the isoform. The reaction was incubated at 30 °C for up to 1 h. […] Similarly, the conversion of cytokinin ribosides to monophosphates was followed on a LiChrosphere 60 RP-Select B (5 µm) LiChroCART column 125-4 column equilibrated with 10 mM triethylamine at pH 5.4 plus 10% methanol, and stepwise eluted with 100% methanol.

Experiment [4] deals with T1, PpADK1. Description: ADK activity, coupled reaction with PK and LDH. The experiment is classed as biochemical, Physcomitrella patens. Particulars: 100 µM substrate, 10 mM ATP, pH 7.5, 30 °C. Here is the method:
as §2

For the next experiment, the system named is all three maize ADKs. The experiment is described as follows: ADK activity, coupled reaction (summary for maize enzymes). The format is biochemical, Zea mays. Particulars: saturating 100 µM concentration. Here is the method:
(§3) Substrate analogs were purchased from Sigma-Aldrich (www.sigmaaldrich.com). The ADK activity was measured spectrophotometrically on an Agilent 8453 UV-Vis spectrophotometer (www.agilent.com) at 30 °C using a coupled reaction with pyruvate kinase (PK) and lactate dehydrogenase (LDH) (www.sigmaaldrich.com) ([Blondin et al., 1994]). In this assay, PK converts ADP produced by ADK and phosphoenolpyruvate (PEP) to pyruvate. Subsequently, LDH then converts pyruvate to lactate using the coenzyme NADH, with the conversion monitored at 340 nm. The reaction was conducted in 50 mM Tris–HCl buffer at pH 7.5, containing 50 mM KCl, 6 mM MgCl2, 300 µM PEP, 200 µM NADH, 10 mM ATP, 2 U of PK, and 2.5 U of LDH, using various nucleoside substrates. Kinetic constants were determined using GraphPad Prism 8.0 software (www.graphpad.com). Each measurement was performed six times using repetitive purified enzymes. The activities of all five ADKs were also measured by HPLC ([Moffatt et al., 1991]). The reaction mixture comprised 50 mM Tris–HCl pH 7.5, 5 mM MgCl2, 0.5 mM DTT, 30 mM NaF, 5 mM ATP, 40 µM substrate, and 2–150 ng of purified ADK, depending on the isoform. The reaction was incubated at 30 °C for up to 1 h. […]

Another experiment relates to both moss enzymes. Description: ADK activity, coupled reaction (summary for moss enzymes). As to conditions: saturating 100 µM concentration. The experiment is classed as biochemical, Physcomitrella patens. The protocol:
as §3

The next experiment addresses PpADK2 (Physcomitrium patens, UniProt A9RF27). The experiment is described as follows: ADK activity, coupled reaction with PK and LDH. Particulars: 100 µM substrate, 10 mM ATP, pH 7.5, 30 °C. The protocol:
as §2

The target in a further experiment is ZmADK1 (Zea mays, UniProt K7UH13). The experiment is described as follows: ADK activity, coupled reaction with PK and LDH. Particulars: 100 µM substrate, 10 mM ATP, pH 7.5, 30 °C. The protocol:
as §2

Another experiment has as its target ZmADK3 N222A variant (Zea mays, UniProt A0A1D6E5Z5, N222A). Description: Binding affinity by MST. The protocol:
(§4) All ZmADK3 mutants were cloned by 30 cycle PCRs using tail-to-tail oriented phosphorylated primers, with the mutation being located at the 5′ end of one of the primers. The following mutants were cloned using the primers given in Supplementary Table S1: D19A, R132A, N222A, E225A, N295A, and D299A. The products were treated with DpnI restriction enzyme, gel purified, and ligated using T4 DNA ligase (www.thermofisher.com). Clones were transformed into T7 express I^qE. coli competent cells.
as §1

A further experiment addresses ZmADK3 D19A variant (Zea mays, UniProt A0A1D6E5Z5, D19A). The experiment is described as follows: Binding affinity by MST. Here is the method: as §4, §1
A further experiment deals with ZmADK3 R132A variant (Zea mays, UniProt A0A1D6E5Z5, R132A). Description: Binding affinity by MST. The protocol:
as §4, §1

The target of the next experiment is ZmADK3 D299A variant (Zea mays, UniProt A0A1D6E5Z5, D299A). Description: Binding affinity by MST. The protocol:
as §4, §1

The target of the next experiment is ZmADK3 N295A variant (Zea mays, UniProt A0A1D6E5Z5, N295A). The experiment is described as follows: Binding affinity by MST. Here is the method: as §4, §1
Chain of ZmADK3 N295A variant (A0A1D6E5Z5 entry or part of it N295A): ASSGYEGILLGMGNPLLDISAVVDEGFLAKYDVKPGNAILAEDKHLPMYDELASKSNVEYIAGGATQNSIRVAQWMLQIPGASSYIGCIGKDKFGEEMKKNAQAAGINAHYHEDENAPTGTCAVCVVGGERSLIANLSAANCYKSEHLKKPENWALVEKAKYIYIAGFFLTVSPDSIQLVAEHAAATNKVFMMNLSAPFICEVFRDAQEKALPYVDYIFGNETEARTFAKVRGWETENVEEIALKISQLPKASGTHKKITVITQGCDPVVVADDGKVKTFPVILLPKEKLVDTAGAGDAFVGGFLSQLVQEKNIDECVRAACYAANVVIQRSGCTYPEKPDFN
The target in the next experiment is ZmADK3 E225A variant (Zea mays, UniProt A0A1D6E5Z5, E225A). The experiment is described as follows: Binding affinity by MST. The protocol:
as §4, §1

Broadly, the Kd is the concentration at which binding is half-saturated.

T1 sequence (O49923 whole entry): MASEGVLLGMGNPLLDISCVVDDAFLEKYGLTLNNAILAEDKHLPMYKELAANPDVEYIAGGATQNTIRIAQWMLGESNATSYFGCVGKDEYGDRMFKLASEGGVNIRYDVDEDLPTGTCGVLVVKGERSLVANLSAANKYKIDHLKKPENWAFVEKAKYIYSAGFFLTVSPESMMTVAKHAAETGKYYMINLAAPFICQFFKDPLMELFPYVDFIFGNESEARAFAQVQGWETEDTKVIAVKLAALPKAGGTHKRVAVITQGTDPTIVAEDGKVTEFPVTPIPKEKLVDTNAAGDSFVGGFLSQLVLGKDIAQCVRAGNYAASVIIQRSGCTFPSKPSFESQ
Chain of ZmADK3 D299A variant (A0A1D6E5Z5 entry or part of it D299A): as the sequence (A0A1D6E5Z5 entry or part of it N295A) above, with A294N, D298A counted along it
Chain of ZmADK3 E225A variant (A0A1D6E5Z5 entry or part of it E225A): as the sequence (A0A1D6E5Z5 entry or part of it N295A) above, with E224A, A294N counted along it
Chain of ZmADK3 R132A variant (A0A1D6E5Z5 entry or part of it R132A): as the sequence (A0A1D6E5Z5 entry or part of it N295A) above, with R131A, A294N counted along it
Chain of ZmADK3 N222A variant (A0A1D6E5Z5 entry or part of it N222A): as the sequence (A0A1D6E5Z5 entry or part of it N295A) above, with N221A, A294N counted along it
Chain of WT ZmADK3 (A0A1D6E5Z5 2-344): as the sequence (A0A1D6E5Z5 entry or part of it N295A) above, with A294N counted along it
Chain of ZmADK3 D19A variant (A0A1D6E5Z5 entry or part of it D19A): as the sequence (A0A1D6E5Z5 entry or part of it N295A) above, with D18A, A294N counted along it
Chain of ZmADK1 (K7UH13 entry or part of it): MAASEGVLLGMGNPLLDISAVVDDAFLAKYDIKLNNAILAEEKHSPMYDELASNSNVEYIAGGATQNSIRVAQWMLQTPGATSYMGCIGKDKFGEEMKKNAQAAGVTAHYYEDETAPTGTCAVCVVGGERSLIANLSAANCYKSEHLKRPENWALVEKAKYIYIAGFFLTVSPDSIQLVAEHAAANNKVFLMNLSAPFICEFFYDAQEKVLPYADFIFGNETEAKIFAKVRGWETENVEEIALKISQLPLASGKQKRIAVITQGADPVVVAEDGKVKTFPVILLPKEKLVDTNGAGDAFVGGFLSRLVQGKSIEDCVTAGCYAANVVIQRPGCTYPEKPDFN
Chain of PpADK2 (A9RF27 entry or part of it): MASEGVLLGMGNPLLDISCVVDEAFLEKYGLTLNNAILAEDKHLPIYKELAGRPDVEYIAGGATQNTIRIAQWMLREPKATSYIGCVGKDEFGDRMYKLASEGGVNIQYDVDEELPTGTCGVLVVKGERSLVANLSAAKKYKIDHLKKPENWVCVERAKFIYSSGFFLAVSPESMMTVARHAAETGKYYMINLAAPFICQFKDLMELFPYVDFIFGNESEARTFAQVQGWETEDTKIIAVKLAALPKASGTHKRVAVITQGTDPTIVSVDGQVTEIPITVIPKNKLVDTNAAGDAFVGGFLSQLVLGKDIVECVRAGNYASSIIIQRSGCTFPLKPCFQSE

Regarding `Nc1ncnc2c1ncn2[C@@H]1O[C@H](CO)[C@@H](O)[C@H]1O` [Ado, adenosine], the Kd is 0.28 ± 0.05 µM on WT ZmADK3; 0.7 µM on PpADK1 [1]; 0.4 ± 0.14 µM at ZmADK2 [2] (KD, 50 mM HEPES pH 7.5, 1 mM MgCl2, first or only binding event); around 1500 µM on ZmADK2 [2] (second KD value, KD(2), second binding event (ATP site)); 1480 ± 230 µM at ZmADK2 [2] (second KD value, second binding event (ATP site)); 0.3 ± 0.13 µM on ZmADK3 N222A variant. Also, the Kd on ZmADK3 D19A variant amounted to 989 ± 161 µM; on ZmADK3 R132A variant it was 0.27 ± 0.04 µM; on ZmADK3 D299A variant, 10.3 ± 4.1 µM; on ZmADK3 N295A variant it was 274 ± 10 µM; at ZmADK3 E225A variant, 0.32 ± 0.09 µM. In addition, the Specific activity on ZmADK2 [3] came out at 40.3±1.4 nmol s^–1 mg^–1; on PpADK1 [4], 5.09±0.26 nmol s^–1 mg^–1; on PpADK2 it was 4.70±0.05 nmol s^–1 mg^–1; on ZmADK1, 30.5±0.4 nmol s^–1 mg^–1. Also, the activity with all three maize ADKs is 30–40 nkat mg^–1; in the experiment with both moss enzymes, 4–5 nkat mg^–1. Besides, the “lower affinity for Ado than the WT” value at ZmADK3 D299A variant (D299A variant of ZmADK3) was ~ 37 times.
